Data published in ChEMBL document CHEMBL5038666, “Discovery of DNA-Targeting HDAC Inhibitors with Potent Antitumor Efficacy In Vivo That Trigger Antitumor Immunity” (J Med Chem, 2022).
Blank lines part the entries; values can stand above or below the compound they belong to. The source made the active and inactive calls. No cut-off for these calls is given here.

Experiments:
Histone deacetylase = assay: Inhibition of HDAC in human HeLa nuclear extract using fluorogenic substrate incubated for 30 mins by fluorescence based assay; type: cell-based
Histone deacetylase 8 = target: T1, Histone deacetylase 8 (Homo sapiens, UniProt Q9BY41); assay: Inhibition of HDAC8 (unknown origin) using fluorogenic substrate incubated for 30 mins by fluorescence based assay
T1 sequence (Q9BY41 whole entry): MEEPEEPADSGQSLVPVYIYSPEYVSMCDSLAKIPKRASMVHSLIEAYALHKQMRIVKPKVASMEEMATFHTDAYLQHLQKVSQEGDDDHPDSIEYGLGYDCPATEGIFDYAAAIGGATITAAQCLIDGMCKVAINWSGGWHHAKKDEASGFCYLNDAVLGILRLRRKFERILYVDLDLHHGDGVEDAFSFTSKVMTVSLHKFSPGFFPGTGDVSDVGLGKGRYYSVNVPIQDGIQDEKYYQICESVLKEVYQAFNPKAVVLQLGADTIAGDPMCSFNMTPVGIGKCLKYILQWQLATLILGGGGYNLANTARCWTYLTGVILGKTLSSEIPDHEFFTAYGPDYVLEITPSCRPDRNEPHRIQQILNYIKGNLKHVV

PC-3 = assay: cells; type: functional, cell-based; details: Homo sapiens, PC-3, 48 h
Description: Antiproliferative activity against human PC3 cells assessed as inhibition of cell growth measured after 48 hrs by MTT assay

K562 = assay: cells; type: functional, cell-based; details: Homo sapiens, K562, 48 h
Description: Antiproliferative activity against human K562 cells assessed as inhibition of cell growth measured after 48 hrs by MTT assay

HEL = assay: cells; type: functional, cell-based; details: Homo sapiens, 48 h
Description: Antiproliferative activity against HEL cells assessed as inhibition of cell growth measured after 48 hrs by MTT assay

DNA = assay: Binding affinity to nuclear DNA in human HepG2 cells assessed as colocalization of acridine orange-test compound signal at 5 uM by confocal fluorescence microscopic analysis; type: functional, cell-based
Histone deacetylase 1 = Histone deacetylase 1 (Homo sapiens, UniProt Q13547); assay: Inhibition of HDAC1 (unknown origin) using fluorogenic substrate incubated for 30 mins by fluorescence based assay
Chain of Histone deacetylase 1 (Q13547 whole entry): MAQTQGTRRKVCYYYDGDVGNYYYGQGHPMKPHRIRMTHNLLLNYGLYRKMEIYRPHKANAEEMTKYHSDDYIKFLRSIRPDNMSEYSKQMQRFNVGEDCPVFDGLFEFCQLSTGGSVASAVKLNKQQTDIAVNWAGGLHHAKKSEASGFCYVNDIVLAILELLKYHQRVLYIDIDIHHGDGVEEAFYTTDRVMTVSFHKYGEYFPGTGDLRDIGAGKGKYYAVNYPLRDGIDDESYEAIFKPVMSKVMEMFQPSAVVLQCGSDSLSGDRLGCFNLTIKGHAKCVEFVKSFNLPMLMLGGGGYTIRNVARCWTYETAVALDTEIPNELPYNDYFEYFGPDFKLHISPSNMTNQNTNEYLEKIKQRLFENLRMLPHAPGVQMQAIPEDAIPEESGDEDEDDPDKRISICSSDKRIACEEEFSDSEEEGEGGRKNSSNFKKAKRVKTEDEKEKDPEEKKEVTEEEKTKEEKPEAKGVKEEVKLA

KG-1 [1] = assay: Antiproliferative activity against human KG-1 cells assessed as inhibition of cell growth measured after 48 hrs by MTT assay; type: functional, cell-based; details: KG-1, 48 h
[2] = target: T2, Protein deacetylase HDAC6 (Homo sapiens, UniProt Q9UBN7); assay: Inhibition of HDAC6 (unknown origin) using fluorogenic substrate incubated for 30 mins by fluorescence based assay
T2 sequence (Q9UBN7 whole entry): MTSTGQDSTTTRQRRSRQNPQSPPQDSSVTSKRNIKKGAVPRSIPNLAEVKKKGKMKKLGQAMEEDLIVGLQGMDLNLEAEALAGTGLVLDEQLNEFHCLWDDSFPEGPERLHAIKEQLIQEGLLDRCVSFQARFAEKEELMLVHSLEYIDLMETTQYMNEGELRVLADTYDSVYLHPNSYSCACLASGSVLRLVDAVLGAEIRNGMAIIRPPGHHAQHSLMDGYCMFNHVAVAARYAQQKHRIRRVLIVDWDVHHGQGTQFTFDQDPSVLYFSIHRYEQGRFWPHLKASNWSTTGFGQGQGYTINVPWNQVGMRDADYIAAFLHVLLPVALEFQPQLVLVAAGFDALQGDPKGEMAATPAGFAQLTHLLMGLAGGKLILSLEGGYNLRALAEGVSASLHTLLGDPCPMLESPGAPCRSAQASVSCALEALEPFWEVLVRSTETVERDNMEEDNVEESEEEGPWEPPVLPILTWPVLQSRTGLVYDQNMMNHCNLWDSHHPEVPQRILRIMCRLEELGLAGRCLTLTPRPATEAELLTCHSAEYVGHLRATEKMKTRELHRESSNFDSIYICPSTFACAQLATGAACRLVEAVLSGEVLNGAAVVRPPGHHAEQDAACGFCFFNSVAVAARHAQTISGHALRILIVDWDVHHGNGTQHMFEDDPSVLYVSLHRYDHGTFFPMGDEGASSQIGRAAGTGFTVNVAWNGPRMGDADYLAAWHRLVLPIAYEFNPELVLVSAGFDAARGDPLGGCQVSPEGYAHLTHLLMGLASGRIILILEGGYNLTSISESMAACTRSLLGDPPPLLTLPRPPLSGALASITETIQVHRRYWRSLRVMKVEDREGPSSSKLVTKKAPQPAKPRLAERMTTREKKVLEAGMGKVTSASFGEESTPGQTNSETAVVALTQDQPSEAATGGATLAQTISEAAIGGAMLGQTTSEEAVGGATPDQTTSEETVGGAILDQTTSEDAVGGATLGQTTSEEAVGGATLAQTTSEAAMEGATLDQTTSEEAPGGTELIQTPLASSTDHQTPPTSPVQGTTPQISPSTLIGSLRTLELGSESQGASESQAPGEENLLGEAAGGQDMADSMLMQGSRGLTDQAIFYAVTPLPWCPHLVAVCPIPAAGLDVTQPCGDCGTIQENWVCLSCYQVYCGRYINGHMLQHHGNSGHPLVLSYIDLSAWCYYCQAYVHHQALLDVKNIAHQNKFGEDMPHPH

Calf thymus DNA [3] = assay: Binding affinity to calf thymus DNA assessed as change in entropy at 500 microM by isothermal titration calorimetric analysis; type: nucleic-acid assay; details: Bos taurus
Histone deacetylase 2 = Histone deacetylase 2 (Homo sapiens, UniProt Q92769); assay: Inhibition of HDAC2 (unknown origin) using fluorogenic substrate incubated for 30 mins by fluorescence based assay
Chain of Histone deacetylase 2 (Q92769 whole entry): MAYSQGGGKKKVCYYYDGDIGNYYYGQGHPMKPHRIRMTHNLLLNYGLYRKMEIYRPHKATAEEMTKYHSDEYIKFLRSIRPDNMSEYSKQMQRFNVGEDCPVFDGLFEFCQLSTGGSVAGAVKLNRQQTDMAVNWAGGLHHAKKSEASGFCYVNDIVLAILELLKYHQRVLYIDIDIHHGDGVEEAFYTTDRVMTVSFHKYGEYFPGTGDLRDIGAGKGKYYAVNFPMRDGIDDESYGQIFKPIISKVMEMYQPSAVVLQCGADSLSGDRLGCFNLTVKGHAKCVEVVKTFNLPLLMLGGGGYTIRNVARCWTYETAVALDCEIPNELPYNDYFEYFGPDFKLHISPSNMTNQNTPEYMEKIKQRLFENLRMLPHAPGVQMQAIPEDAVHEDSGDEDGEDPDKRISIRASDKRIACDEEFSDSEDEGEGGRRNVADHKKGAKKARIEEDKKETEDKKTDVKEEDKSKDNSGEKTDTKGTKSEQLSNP

HepG2 = assay: cells; type: functional, cell-based; details: Homo sapiens, HepG2, 48 h
Description: Antiproliferative activity against human HepG2 cells assessed as inhibition of cell growth measured after 48 hrs by MTT assay

Calf thymus DNA [4] = assay: Binding affinity to calf thymus DNA assessed as increase in absorption at 20 uM by UV-vis absorption spectroscopy; type: nucleic-acid assay; details: Bos taurus
B16-F10 [5] = assay: Antitumor activity against mouse B16-F10 cells implanted in C57BL/6J mouse assessed as reduction on tumor weight at 60 mg/kg, IG administered for 12 days; type: functional, organism-based; details: time 12.0 day
KG-1 [6] = assay: Induction of apoptosis in human KG-1 cells assessed as total apoptotic cells at 1 uM measured after 24 hrs by Annexin V-FITC/propidium iodide staining based flow cytometry analysis relative to control; type: functional
[7] = Toxicity in C57BL/6J mouse implanted with mouse B16-F10 cells assessed as glomerular structure damage in kidney at 60 mg/kg, IG administered for 12 days H and E staining based histopathological analysis; type: organism-based; details: in vivo, po, 288 h, time 12 day
B16-F10 [8] = assay: Antitumor activity against mouse B16-F10 cells implanted in C57BL/6J mouse assessed as reduction on tumor size at 60 mg/kg, IG administered for 12 days; type: functional, organism-based; details: time 12.0 day
[9] = Toxicity in C57BL/6J mouse implanted with mouse B16-F10 cells assessed as heart damage at 60 mg/kg, IG administered for 12 days H and E staining based histopathological analysis; type: organism-based; details: in vivo, po, 288 h, time 12 day
[10] = Toxicity in C57BL/6J mouse implanted with mouse B16-F10 cells assessed as liver damage at 60 mg/kg, IG administered for 12 days H and E staining based histopathological analysis; type: organism-based; details: in vivo, po, 288 h, time 12 day
B16-F10 [11] = assay: Antitumor activity against mouse B16-F10 cells implanted in C57BL/6J mouse assessed as reduction on tumor volume at 60 mg/kg, IG administered for 12 days; type: functional, organism-based; details: time 12.0 day
KG-1 [12] = assay: Downregulation of SPT16 expression in human KG-1 cells assessed as chromatin damage at 0.5 to […] measured after 24 hrs by Western blot analysis; type: functional, cell-based; details: dose 0.5-2.5 µM
[13] = Toxicity in C57BL/6J mouse implanted with mouse B16-F10 cells assessed as spleen damage at 60 mg/kg, IG administered for 12 days H and E staining based histopathological analysis; type: organism-based; details: in vivo, po, 288 h, time 12 day
KG-1 [14] = assay: Downregulation of SSRP-1 expression in human KG-1 cells assessed as chromatin damage at 0.5 to […] measured after 24 hrs by Western blot analysis; type: functional, cell-based; details: dose 0.5-2.5 µM
[15] = Toxicity in C57BL/6J mouse implanted with mouse B16-F10 cells assessed as lung damage at 60 mg/kg, IG administered for 12 days H and E staining based histopathological analysis; type: organism-based; details: in vivo, po, 288 h, time 12 day
B16-F10 [16] = assay: Antitumor immunity against mouse B16-F10 cells implanted in C57BL/6J mouse assessed as increase in proportion of T cells in spleen by flow cytometry analysis; type: functional, cell-based
B16-F10 [17] = assay: Antitumor activity against mouse B16-F10 cells xenografted in C57BL/6J mouse assessed as reduction in tumor heterogeneity at 60 mg/kg, IG administered for 12 days by H and E staining based histopathological analysis; type: functional, organism-based; details: time 12.0 day
[18] = Toxicity in C57BL/6J mouse implanted with mouse B16-F10 cells assessed as effect on body weight at 60 mg/kg, IG administered for 12 days; type: organism-based; details: in vivo, po, 288 h, time 12 day
B16-F10 [19] = assay: Antitumor activity against mouse B16-F10 cells xenografted in C57BL/6J mouse assessed as change in tumor cell morphology into normal tissue at 60 mg/kg, IG administered for 12 days by H and E staining based histopathological analysis; type: functional, organism-based; details: time 12.0 day

IC50 (Histone deacetylase): 27.4 nM
SMILES: O=C(CCCCCOc1cccc(-c2nc3ccc(-c4nc5ccccc5[nH]4)cc3[nH]2)c1)NO

IC50 (Histone deacetylase): > 1000 nM
SMILES: O=C(COc1cccc(-c2nc3ccc(-c4nc5ccccc5[nH]4)cc3[nH]2)c1)NO

IC50 (Histone deacetylase): 189.1 nM
SMILES: O=C(CCCCOc1ccc(-c2nc3ccccc3[nH]2)cc1)NO

IC50 (Histone deacetylase): 43.62 nM
SMILES: O=C(CCCCCOc1ccc(-c2nc3ccc(-c4nc5ccccc5[nH]4)cc3[nH]2)cc1)NO

IC50 (Histone deacetylase): 490.4 nM
SMILES: O=C(CCCOc1cccc(-c2nc3ccccc3[nH]2)c1)NO

IC50 (Histone deacetylase): 40.3 nM
SMILES: O=C(CCCCCCOc1ccc(-c2nc3ccccc3[nH]2)cc1)NO

IC50 (Histone deacetylase): > 1000 nM
SMILES: O=C(COc1cccc(-c2nc3ccccc3[nH]2)c1)NO

IC50 (Histone deacetylase): > 1000 nM
SMILES: O=C(CCCOc1ccc(-c2nc3ccc(-c4nc5ccccc5[nH]4)cc3[nH]2)cc1)NO

Further lines, the compound ahead of its results:

SMILES: O=C(CCCCCCCOc1ccc(-c2nc3ccccc3[nH]2)cc1)NO
IC50 (Histone deacetylase): 49.3 nM

SMILES: O=C(CCCCOc1ccc(-c2nc3ccc(-c4nc5ccccc5[nH]4)cc3[nH]2)cc1)NO
IC50 (Histone deacetylase): 218.8 nM

SMILES: O=C(CCCOc1cccc(-c2nc3ccc(-c4nc5ccccc5[nH]4)cc3[nH]2)c1)NO
IC50 (Histone deacetylase): 50 nM

SMILES: O=C(CCCCOc1cccc(-c2nc3ccc(-c4nc5ccccc5[nH]4)cc3[nH]2)c1)NO
IC50 (Histone deacetylase): 304.3 nM

SMILES: O=C(CCCCCCOc1cccc(-c2nc3ccc(-c4nc5ccccc5[nH]4)cc3[nH]2)c1)NO
IC50 (Histone deacetylase): 17.9 nM

SMILES: O=C(COc1ccc(-c2nc3ccccc3[nH]2)cc1)NO
IC50 (Histone deacetylase): 156.7 nM

SMILES: O=C(CCCOc1ccc(-c2nc3ccccc3[nH]2)cc1)NO
IC50 (Histone deacetylase): 981.3 nM

SMILES: O=C(CCCCCCCOc1ccc(-c2nc3ccc(-c4nc5ccccc5[nH]4)cc3[nH]2)cc1)NO
IC50 (Histone deacetylase): 20.1 nM

SMILES: O=C(COc1ccc(-c2nc3ccc(-c4nc5ccccc5[nH]4)cc3[nH]2)cc1)NO
IC50 (Histone deacetylase): > 1000 nM

SMILES: O=C(CCCCCCOc1ccc(-c2nc3ccc(-c4nc5ccccc5[nH]4)cc3[nH]2)cc1)NO
IC50 (Histone deacetylase 8): > 20000 nM
IC50 (PC-3): 4400 nM
IC50 (K562): 510 nM
IC50 (HEL): 1900 nM
Activity (DNA): Active
IC50 (Histone deacetylase 1): 31 nM
IC50 (KG-1 [1]): 1400 nM
IC50 [2]: 29 nM
-TdeltaS (Calf thymus DNA [3]): 45.3 kcal/mol
IC50 (Histone deacetylase 2): 32 nM
IC50 (HepG2): 11000 nM
Activity (Calf thymus DNA [4]): Active
IC50 (Histone deacetylase): 7.6 nM

SMILES: O=C(CCCCCOc1cccc(-c2nc3ccccc3[nH]2)c1)NO
IC50 (Histone deacetylase): 118.6 nM

SMILES: O=C(CCCCOc1cccc(-c2nc3ccccc3[nH]2)c1)NO
IC50 (Histone deacetylase): 194.4 nM

SMILES: O=C(CCCCCOc1ccc(-c2nc3ccccc3[nH]2)cc1)NO
IC50 (Histone deacetylase): 76 nM

SMILES: CN1CCN(c2ccc3nc(-c4ccc5nc(-c6ccc(O)cc6)[nH]c5c4)[nH]c3c2)CC1
IC50 (KG-1 [1]): 42000 nM

SMILES: O=C(CCCCCCC(=O)Nc1ccccc1)NO [VORINOSTAT]
Activity (B16-F10 [5]): Active
Activity (KG-1 [6]): 18.2%
Activity [7]: Toxic
Activity (B16-F10 [8]): Active
Activity [9]: Non-Toxic
Activity [10]: Non-Toxic
Activity (B16-F10 [11]): Active
Activity (KG-1 [12]): inactive
Activity [13]: Non-Toxic
Activity (KG-1 [14]): inactive
Activity [15]: Non-Toxic
Activity (B16-F10 [16]): Active
IC50 (KG-1 [1]): 70 nM
Activity (B16-F10 [17]): Active
Activity [18]: Non-Toxic
Activity (B16-F10 [19]): Active

SMILES: O=C(CCCCCCCOc1cccc(-c2nc3ccc(-c4nc5ccccc5[nH]4)cc3[nH]2)c1)NO
IC50 (Histone deacetylase 8): > 20000 nM
IC50 (PC-3): 6900 nM
IC50 (K562): 2900 nM
IC50 (HEL): 2300 nM
IC50 (Histone deacetylase 1): 47 nM
IC50 (KG-1 [1]): 1600 nM
IC50 [2]: 23 nM
IC50 (Histone deacetylase 2): 81 nM
IC50 (HepG2): 16000 nM
IC50 (Histone deacetylase): 7.3 nM
